Results reported in patent US7026359B1, “Utilization of a highly fluorinated oligomeric alkane in ophthalmology” (Bausch & Lomb Incorporated, priority 1999, dated 2006).

Key:
Format in all cases: physicochemical
[1] = Critical solubility temperature in hexane (CST), qualitative measure of lipophilicity / tissue penetration
From the text: The tissue penetration capacity can be described qualitatively by the critical solubility temperature in hexane (abbreviation: CST). This qualitative measure of lipophilicity is at the same time a measure of the capacity for tissue penetration.

Density = test: Density
Refractive index = test: Refractive index
Surface tension = test: Surface tension
Viscosity = test: Viscosity
[2] = Sterilization in an autoclave (stability); conditions: 121° C. in an autoclave
Procedure: The highly fluorinated oligomer (C6F13CHCH2)3 is dissolved in fluorocarbons and purified via an Al2O3 chromatographic column. After removal of the solvent the last traces of volatile contaminants are removed in a vacuum. The highly fluorinated trimer according to nuclear spin resonance, infrared and mass spectroscopic tests, a uniform and highly pure substance with a molecular weight of 1055. Charging with an active agent takes place under mild conditions via a solvent that is not miscible with the trimer after distribution to saturation concentration. β-Carotene as active agent changes the color of the oligomer slightly. […] The nuclear magnetic data of this substance are as follows: […]

Critical solubility temperature in n-hexane, CST [1]: 35 °C
Density (Density): 1.661 g/mL
Refractive index n^D20 (Refractive index): 1.3351
Surface tension (Surface tension): 19.5 mN/m
Viscosity (Viscosity): 220 mPa·sec
Substance: (C6F13CHCH2)3 [Example 1]
Stability on sterilization [2]: without the physical or chemical properties of the substances being changed
